Read-outs that look alike come from different tables or passages of the source.
Experiments:
[1] = Solubility testing of gemfibrozil in solvents/cosolvents at 12 mg/ml and 32 mg/ml; assay type: physicochemical; details: tested at 12 and 32 mg/ml
Method: Two doses of gemfibrozil were considered for each solvent/cosolvent. A low dose gemfibrozil preparation: 60 mg gemfibrozil in 5 ml of solvent/cosolvent (12 mg/ml dose), and a high dose gemfibrozil preparation: 160 mg gemfibrozil in 5 mL of solvent/cosolvent (32 mg/ml dose). Table 5 below illustrates that the first six solvent/cosolvents achieved gemfibrozil solubilization at both the 12 mg/ml dose and the 32 mg/ml dose. The solvent/cosolvents included the sodium carbonate/bicarbonate buffer having a pH of 10.5, polyethylene glycol (PEG) 400, glyceryl monolinoleate, propylene glycol dicaprylate/dicaprate, propylene glycol, and glyceryl monooleate.
The citrate buffer having a pH of 4.5 with tocopheryl polyethylene glycol succinate (TPGS) achieved gemfibrozil solubilization only the 12 mg/ml dose. The remainder of the solvents/cosolvents were not able to solubilize gemfibrozil at either the low dose or the high dose concentration.

[2] = Solubility of gemfibrozil in PEG 400 over a concentration range; assay type: physicochemical; details: standing upright at room temperature overnight
Method: A concentrated stock solution of gemfibrozil was prepared in PEG 400. Gemfibrozil was evaluated for its solubility in PEG 400 over concentration range to determine an upper concentration that could be used to prepare a stock solution of gemfibrozil in liquid form. On the day of preparation gemfibrozil was dissolved in the PEG 400 at the indicated concentration. All samples were clear upon mixing. Following mixing, samples were stored standing upright at room temperature overnight.

[3] = cited from earlier work

Cc1ccc(C)c(OCCCC(C)(C)C(=O)O)c1 [Gemfibrozil, 5-(2,5-dimethylphenoxy)-2,2-dimethyl-pentanoic acid]
Gemfibrozil Solubility ([1]; Glycerol and Polysorbate 80): Not soluble | Gemfibrozil Solubility ([1]; Glyceryl monolinoleate): Soluble at 12 mg/ml and 32 mg/ml | Gemfibrozil Solubility ([1]; Glyceryl monooleate): Soluble at 12 mg/ml and 32 mg/ml | Gemfibrozil Solubility ([1]; Polyethylene glycol 400): Soluble at 12 mg/ml and 32 mg/ml | Gemfibrozil Solubility ([1]; Propylene glycol dicaprylate/dicaprate): Soluble at 12 mg/ml and 32 mg/ml | Gemfibrozil Solubility ([1]; Propylene glycol): Soluble at 12 mg/ml and 32 mg/ml | Gemfibrozil Solubility ([1]; Soybean oil): Not soluble | Gemfibrozil Solubility ([1]; pH 4.5 Citrate buffer and Poloxamer P188): Not soluble | Gemfibrozil Solubility ([1]; pH 4.5 Citrate buffer and Solutol HS15): Not soluble | Gemfibrozil Solubility ([1]; pH 4.5 citrate buffer and TPGS): Soluble at 12 mg/ml | Gemfibrozil Solubility ([1]; pH 10.5 Sodium carbonate/bicarbonate buffer): Soluble at 12 mg/ml and 32 mg/ml | solubility limit of gemfibrozil in PEG 400 [2]: 21.3 % w/w | solubility of gemfibrozil ([3]; in DMSO): ~16 mg/mL | solubility of gemfibrozil ([3]; in ethanol): approximately 30 mg/ml | solubility of gemfibrozil ([3]; in water): approximately 0.03 mg/ml
